# Reference: ChEMBL document CHEMBL3763148, “Synthesis, structure elucidation, DNA-PK and PI3K and anti-cancer activity of 8- and 6-aryl-substituted-1-3-benzoxazines” (Eur J Med Chem, 2016)
# How the values were obtained:
# [1] = biological target: T1, Phosphatidylinositol 4,5-bisphosphate 3-kinase catalytic subunit alpha isoform (Homo sapiens, UniProt P42336); experiment: Inhibition of PI3Kalpha (unknown origin) at 10 uM incubated for 60 mins by kinase-glo luminescence assay
# Homo sapiens = organism: Homo sapiens; experiment: Selectivity ratio of IC50 for PI3Kbeta (unknown origin) to IC50 for human DNA-PK
# [2] = biological target: T2, Phosphatidylinositol 4,5-bisphosphate 3-kinase catalytic subunit beta isoform (Homo sapiens, UniProt P42338); experiment: Inhibition of PI3Kbeta (unknown origin) incubated for 60 mins by kinase-glo luminescence assay
# Target sequence in this assay (P42338 whole entry, canonical isoform): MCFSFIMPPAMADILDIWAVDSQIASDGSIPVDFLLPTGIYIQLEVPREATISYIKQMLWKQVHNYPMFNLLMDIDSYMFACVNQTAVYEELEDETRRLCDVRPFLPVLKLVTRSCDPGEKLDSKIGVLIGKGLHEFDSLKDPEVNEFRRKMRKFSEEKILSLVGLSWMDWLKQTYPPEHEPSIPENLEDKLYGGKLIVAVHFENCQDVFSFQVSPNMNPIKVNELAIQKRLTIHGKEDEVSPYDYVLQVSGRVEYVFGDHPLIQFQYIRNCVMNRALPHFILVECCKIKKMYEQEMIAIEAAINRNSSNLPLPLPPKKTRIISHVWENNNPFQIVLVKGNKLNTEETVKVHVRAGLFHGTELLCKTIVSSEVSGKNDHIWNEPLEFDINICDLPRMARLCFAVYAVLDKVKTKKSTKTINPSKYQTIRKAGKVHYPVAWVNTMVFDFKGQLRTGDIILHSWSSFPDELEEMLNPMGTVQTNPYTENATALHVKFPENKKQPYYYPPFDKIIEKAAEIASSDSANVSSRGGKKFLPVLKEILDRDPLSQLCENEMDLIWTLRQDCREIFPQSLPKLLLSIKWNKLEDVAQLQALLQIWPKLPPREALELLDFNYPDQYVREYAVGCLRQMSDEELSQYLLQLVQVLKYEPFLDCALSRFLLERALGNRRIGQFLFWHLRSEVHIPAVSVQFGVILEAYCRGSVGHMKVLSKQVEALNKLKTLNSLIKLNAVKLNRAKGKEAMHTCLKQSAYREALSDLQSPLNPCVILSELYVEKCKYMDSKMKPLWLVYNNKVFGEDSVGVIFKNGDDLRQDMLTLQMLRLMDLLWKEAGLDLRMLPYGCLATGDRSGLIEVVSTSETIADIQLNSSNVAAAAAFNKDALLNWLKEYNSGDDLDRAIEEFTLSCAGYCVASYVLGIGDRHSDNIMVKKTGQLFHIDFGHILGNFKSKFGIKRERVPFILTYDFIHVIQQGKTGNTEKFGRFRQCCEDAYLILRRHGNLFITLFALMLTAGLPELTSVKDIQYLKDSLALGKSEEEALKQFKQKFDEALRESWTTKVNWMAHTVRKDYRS
# [3] = Cytotoxicity against human MOLT4 cells assessed as cell growth inhibition at 10 uM after 48 hrs by SRB assay relative to control; type: functional; conditions: MOLT-4, 48 h, read-out: GI
# [4] = biological target: T1, Phosphatidylinositol 4,5-bisphosphate 3-kinase catalytic subunit alpha isoform; experiment: Inhibition of PI3Kalpha (unknown origin) incubated for 60 mins by kinase-glo luminescence assay
# [5] = biological target: T2, Phosphatidylinositol 4,5-bisphosphate 3-kinase catalytic subunit beta isoform; experiment: Inhibition of PI3Kbeta (unknown origin) at 10 uM incubated for 60 mins by kinase-glo luminescence assay
# Target sequence in this assay (P42338 whole entry, looked up, canonical isoform): as the sequence (P42338 whole entry, canonical isoform) above
# [6] = biological target: T3, Phosphatidylinositol 4,5-bisphosphate 3-kinase catalytic subunit delta isoform (Homo sapiens) (UniProt O00329); experiment: Inhibition of PI3Kdelta (unknown origin) at 10 uM incubated for 60 mins by kinase-glo luminescence assay
# T3 sequence (whole entry): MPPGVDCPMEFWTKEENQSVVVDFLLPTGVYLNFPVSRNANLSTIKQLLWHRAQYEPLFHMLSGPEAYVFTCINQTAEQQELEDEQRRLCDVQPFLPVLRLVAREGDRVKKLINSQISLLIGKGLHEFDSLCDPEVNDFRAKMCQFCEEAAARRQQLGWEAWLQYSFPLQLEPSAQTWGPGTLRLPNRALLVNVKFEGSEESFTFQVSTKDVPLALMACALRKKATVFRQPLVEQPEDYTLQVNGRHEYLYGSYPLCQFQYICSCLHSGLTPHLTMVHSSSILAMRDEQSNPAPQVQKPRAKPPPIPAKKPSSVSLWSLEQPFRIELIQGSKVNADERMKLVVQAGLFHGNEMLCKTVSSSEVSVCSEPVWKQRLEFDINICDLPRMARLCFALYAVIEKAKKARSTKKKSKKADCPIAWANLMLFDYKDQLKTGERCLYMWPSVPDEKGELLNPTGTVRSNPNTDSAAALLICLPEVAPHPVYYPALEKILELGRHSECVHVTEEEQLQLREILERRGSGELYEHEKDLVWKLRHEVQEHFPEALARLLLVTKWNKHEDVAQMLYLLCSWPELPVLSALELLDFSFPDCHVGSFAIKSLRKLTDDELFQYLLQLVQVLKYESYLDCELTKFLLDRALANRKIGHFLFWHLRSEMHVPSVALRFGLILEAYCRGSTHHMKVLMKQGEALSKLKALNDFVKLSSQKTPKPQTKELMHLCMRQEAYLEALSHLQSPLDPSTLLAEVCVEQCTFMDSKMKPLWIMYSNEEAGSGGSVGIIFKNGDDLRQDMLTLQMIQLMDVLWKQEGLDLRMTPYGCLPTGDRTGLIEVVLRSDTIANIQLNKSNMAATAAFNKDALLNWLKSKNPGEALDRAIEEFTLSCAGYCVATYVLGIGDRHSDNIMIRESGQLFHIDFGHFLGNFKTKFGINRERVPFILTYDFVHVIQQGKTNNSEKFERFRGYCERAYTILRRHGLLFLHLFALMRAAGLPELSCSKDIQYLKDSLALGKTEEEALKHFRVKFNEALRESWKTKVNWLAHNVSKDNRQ
# [7] = biological target: DNA-dependent protein kinase catalytic subunit (Homo sapiens, UniProt P78527); experiment: Inhibition of human DNA-PK using EPPLSQEAFADLWKK as substrate at 10 uM by HTRF assay
# T1 sequence (P42336 whole entry, canonical isoform): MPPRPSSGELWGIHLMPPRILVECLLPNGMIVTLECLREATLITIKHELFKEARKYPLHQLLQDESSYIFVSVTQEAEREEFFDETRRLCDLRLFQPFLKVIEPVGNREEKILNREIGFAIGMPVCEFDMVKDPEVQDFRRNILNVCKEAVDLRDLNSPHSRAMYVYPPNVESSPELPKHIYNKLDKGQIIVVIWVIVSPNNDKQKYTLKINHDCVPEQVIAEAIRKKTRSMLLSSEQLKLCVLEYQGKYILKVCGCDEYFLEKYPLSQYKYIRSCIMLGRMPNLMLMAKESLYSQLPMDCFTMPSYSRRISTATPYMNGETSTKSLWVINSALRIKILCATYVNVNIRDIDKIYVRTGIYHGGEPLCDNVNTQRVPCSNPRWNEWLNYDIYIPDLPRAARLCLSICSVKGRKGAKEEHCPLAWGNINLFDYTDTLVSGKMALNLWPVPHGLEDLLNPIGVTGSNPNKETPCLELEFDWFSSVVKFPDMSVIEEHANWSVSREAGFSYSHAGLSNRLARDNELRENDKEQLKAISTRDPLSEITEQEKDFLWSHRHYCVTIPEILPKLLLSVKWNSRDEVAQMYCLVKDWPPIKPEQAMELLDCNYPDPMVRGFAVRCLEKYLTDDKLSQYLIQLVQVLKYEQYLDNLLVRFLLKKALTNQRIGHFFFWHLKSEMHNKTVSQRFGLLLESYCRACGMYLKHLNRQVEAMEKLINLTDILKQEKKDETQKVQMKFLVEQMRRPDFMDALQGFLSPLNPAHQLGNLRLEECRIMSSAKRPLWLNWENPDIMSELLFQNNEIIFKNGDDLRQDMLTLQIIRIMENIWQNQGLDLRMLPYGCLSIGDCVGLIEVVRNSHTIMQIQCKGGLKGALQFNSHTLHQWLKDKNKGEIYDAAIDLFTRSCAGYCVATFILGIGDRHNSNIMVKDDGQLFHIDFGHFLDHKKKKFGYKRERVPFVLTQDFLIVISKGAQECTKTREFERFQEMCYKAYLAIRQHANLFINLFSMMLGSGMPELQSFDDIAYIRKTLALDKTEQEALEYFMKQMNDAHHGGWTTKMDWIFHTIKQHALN
Structure (SMILES),inhibition [1] [%],Ratio IC50 (Homo sapiens),IC50 [2] [µM],inhibition of growth at 10 µM [3] [%],IC50 [4] [µM],inhibition [5] [%],inhibition [6] [%],inhibition [7] [%]
O=c1nc(N2CCOCC2)oc2c(-c3cccc4c3sc3ccccc34)cccc12,25,170,5.8,10.4,–,–,–,–
O=c1nc(N2CCOCC2)oc2c(-c3cccc4ccccc34)cccc12,34,8,5,6.92,–,–,–,–
O=c1nc(N2CCOCC2)oc2c(-c3cccc4c3oc3ccccc34)cccc12,26,–,6.9,4.2,–,–,–,–
O=c1nc(N2CCOCC2)oc2c(-c3ccsc3)cccc12,–,–,3.4,9.6,3,–,–,–
COc1ccc(-c2cccc3c(=O)nc(N4CCOCC4)oc23)cc1,–,–,–,1.48,2.8,22,–,–
NC(=O)c1ccc(-c2cccc3c(=O)nc(N4CCOCC4)oc23)cc1,–,–,–,-2.82,> 10,13,–,–
O=c1nc(N2CCOCC2)oc2ccc(-c3cccc4c3sc3ccccc34)cc12,0,–,–,-8.92,–,21,0,8
O=c1nc(N2CCOCC2)oc2c(-c3cccs3)cccc12,–,–,–,-0.6,3.3,43,–,–
